Assay results: PMC13039201 (Scientific Reports, 2026)
Like-named read-outs stand apart in the source and are kept apart here.

Key:
anti-HA antibody = test: SPR injection on the bare anti-HA sensor chip without any immobilized HA; type: binding, rabbits
[1] = target: HA captured from plasma (ACLF patients, CTRL) (Homo sapiens, UniProt P02768); type: binding; details: ACLF n = 6 vs CTRL n = 6, Student's t-test on KD values
[2] = target: Human serum albumin (HA), commercial HA (Homo sapiens, UniProt P02768)
Human serum albumin (HA), commercial HA, sequence (P02768 25-609): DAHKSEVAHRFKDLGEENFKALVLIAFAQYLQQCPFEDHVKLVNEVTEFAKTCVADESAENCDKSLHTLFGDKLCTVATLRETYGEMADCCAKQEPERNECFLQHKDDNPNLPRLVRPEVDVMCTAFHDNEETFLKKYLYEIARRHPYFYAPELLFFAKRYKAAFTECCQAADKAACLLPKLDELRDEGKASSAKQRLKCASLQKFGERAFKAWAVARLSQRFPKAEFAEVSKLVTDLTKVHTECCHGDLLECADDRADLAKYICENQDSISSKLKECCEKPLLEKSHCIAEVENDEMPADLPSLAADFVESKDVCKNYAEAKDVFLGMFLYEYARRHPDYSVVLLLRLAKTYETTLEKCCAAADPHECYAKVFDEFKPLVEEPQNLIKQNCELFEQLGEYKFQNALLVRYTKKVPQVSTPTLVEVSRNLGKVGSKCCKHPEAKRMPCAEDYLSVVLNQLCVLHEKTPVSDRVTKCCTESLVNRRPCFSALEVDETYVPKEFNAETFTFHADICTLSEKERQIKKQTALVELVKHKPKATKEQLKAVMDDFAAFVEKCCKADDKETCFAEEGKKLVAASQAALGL

HA = details: read-out: KD reported in the literature; cited from earlier work
[3] = target: HA captured from plasma (T2DM-DKD, T2DM+DKD) (Homo sapiens, UniProt P02768); type: binding; details: n = 10 each, KD values
HA captured from plasma (T2DM-DKD, T2DM+DKD), sequence (P02768 25-609): as above

HA captured from plasma (ACLF patients, CTRL), sequence (P02768 25-609): as above

Compound | affinity of HA from ACLF patients compared with HA from CTRL subjects [1] | Kd (HA) [µM] | further results
CCCCC1C(=O)N(c2ccccc2)N(c2ccccc2)C1=O [PBZ, phenylbutazone] | – | 0.12 to 3.3 | –
COc1ccc2c3c1O[C@H]1C[C@@H](O)C=C[C@@]31CCN(C)C2 [galantamine] | – | – | interaction with HA (negative control) ([2]; 0.370-30.0 µM, 10 µL/min, 60 s): no interaction
CN(C)c1cccc2c(S(=O)(=O)N[C@@H](Cc3ccccc3)C(=O)O)cccc12 [DPA, dansyl-L-phenylalanine] | no significant differences | 6 | Kd ([2]; commercial HA captured on chip, steady state 1:1 model, 25 °C, validation): 1.7 ± 0.3 µM

Continued, in another order:

affinity of HA from ACLF patients compared with HA from CTRL subjects [1] | Compound | Kd (HA) [µM] | further results
no significant differences | C=CC1=C(C)/C(=C/C2=NC(=C\c3[nH]c(/C=C4\NC(=O)C(C)=C4C=C)c(C)c3CCC(=O)O)/C(CCC(=O)O)=C2C)NC1=O [BVD, biliverdin] | – | interactions with the anti-HA antibody (anti-HA antibody): significant interactions; Kd [2]: 13 ± 3 µM
reduced its binding affinity | teicoplanin | – | binding capacity of HA in T2DM + DKD patients compared with T2DM-DKD [3]: did not significantly affect
